Reference: PMC6316187, “Synergistic AML Cell Death Induction by Marine Cytotoxin (+)-1(R), 6(S), 1’(R), 6’(S), 11(R), 17(S)-Fistularin-3 and Bcl-2 Inhibitor Venetoclax” (Marine Drugs, 2018)

Biological target: DNA methyltransferase 1 (DNMT1) (Homo sapiens, UniProt P26358)
Assay: in vitro DNMT activity/inhibition assay (Active Motif), […] ng purified DNMT1, colorimetric; […] compound
Type: biochemical

Sequence of DNA methyltransferase 1 (DNMT1) (P26358 whole entry): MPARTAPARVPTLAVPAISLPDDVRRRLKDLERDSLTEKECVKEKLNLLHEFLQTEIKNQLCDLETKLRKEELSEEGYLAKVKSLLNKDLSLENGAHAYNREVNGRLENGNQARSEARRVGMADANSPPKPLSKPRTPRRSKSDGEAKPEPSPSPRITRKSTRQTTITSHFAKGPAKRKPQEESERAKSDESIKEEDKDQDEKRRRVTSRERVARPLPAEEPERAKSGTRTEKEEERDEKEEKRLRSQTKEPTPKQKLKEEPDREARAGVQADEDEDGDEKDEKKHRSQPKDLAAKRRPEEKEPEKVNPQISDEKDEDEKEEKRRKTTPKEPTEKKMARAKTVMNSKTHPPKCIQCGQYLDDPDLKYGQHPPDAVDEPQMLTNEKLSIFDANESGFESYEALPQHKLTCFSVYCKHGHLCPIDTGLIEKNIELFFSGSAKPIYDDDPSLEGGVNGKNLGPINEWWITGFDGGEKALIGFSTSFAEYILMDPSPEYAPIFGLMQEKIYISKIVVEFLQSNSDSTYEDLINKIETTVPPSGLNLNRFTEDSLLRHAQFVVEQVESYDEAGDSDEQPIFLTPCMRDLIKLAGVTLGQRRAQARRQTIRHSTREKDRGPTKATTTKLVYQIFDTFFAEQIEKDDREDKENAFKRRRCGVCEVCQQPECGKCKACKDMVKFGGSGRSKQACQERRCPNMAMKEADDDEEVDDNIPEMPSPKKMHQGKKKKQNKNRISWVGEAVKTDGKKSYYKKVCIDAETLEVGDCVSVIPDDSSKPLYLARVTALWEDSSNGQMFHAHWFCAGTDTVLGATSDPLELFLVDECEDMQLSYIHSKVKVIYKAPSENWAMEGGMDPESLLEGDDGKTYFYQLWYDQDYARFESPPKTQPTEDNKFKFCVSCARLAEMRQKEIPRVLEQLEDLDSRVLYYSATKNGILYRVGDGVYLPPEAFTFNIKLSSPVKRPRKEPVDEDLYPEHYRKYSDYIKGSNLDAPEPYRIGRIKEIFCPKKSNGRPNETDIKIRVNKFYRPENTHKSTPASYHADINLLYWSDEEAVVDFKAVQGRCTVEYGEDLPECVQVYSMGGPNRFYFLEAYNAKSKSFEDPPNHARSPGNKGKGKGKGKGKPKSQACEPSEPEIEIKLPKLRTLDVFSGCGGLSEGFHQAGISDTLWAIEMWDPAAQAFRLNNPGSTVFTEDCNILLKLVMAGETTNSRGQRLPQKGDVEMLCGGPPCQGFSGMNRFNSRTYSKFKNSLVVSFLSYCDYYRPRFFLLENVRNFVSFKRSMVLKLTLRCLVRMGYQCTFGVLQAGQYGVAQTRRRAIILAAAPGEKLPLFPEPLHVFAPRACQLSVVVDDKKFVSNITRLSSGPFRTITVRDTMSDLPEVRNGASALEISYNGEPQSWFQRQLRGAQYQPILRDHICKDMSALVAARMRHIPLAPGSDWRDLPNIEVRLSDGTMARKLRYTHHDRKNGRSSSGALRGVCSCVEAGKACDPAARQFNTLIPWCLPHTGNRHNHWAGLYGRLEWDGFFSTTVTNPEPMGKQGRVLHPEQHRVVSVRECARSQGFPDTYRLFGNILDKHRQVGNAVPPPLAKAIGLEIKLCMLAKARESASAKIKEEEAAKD

inhibition at 50 µM: ~25%
SMILES: COC1=C(Br)[C@H](O)[C@@]2(C=C1Br)CC(C(=O)NC[C@@H](O)COc1c(Br)cc([C@H](O)CNC(=O)C3=NO[C@]4(C=C(Br)C(OC)=C(Br)[C@@H]4O)C3)cc1Br)=NO2 [RS-F3, (+)-11(R), 17(S)-fistularin-3]
